Source: patent US7094909B2, “HIV protease inhibitors, compositions containing the same, their pharmaceutical uses and materials for their synthesis” (priority 2001, dated 2006)
Like-named read-outs stand apart in the source and are kept apart here.

Key:
[1] = biological target: T1, HIV-1 protease (Q7S mutant form) (Human immunodeficiency virus type 1 group M subtype B, UniProt P04585, Q495S); test: HIV-1 Protease RET assay; assay type: biochemical; conditions: Ave. Ki (nM), RET assay, Q7S enzyme, Morrison tight binding fit
T1 construct: made in house
Summary of the method: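 Ki values fitted with the Morrison tight-binding equation from steady-state RET cleavage (ex 340, em 490 nm) of 5 μM RE(EDANS)SQNYPIVQK(DABCYL)R. Buffer pH 4.8 acetate, 1M NaCl, 5 mM DTT, 1 mg/ml BSA, 10% DMSO; 2 nM Q7S mutant dimer, 37 °C, 12 min.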

[2] = tested on: 461, 84V, 90M virus; test: Phenotypic susceptibility assay at Virologic, Inc.; assay type: cell-based, HIV-1; conditions: Human immunodeficiency virus 1, read-out: EC50 or IC50 (mM), values with asterisk (IC50)
Protocol: (§1) Compounds were tested in phenotypic susceptibility assays at Virologic, Inc., (See Petropoulos C. J., Parkin N. T., Limoli K. L., Lie Y. S., Wrin T., Huang W., Tian H., Smith D., Winslow G. A., Capon D J, Whitcomb J M. 2000, “A novel phenotypic drug susceptibility assay for human immunodeficiency virus type 1,” Antimicrob Agents Chemother 44(4):920–928) or using the assay described here. MT-2 cells were infected with either HIV-1 NL4-3 or HIV-1 NL4-3([…]) and incubated in the presence of serial 0.5 log dilutions of test compounds. Three days later, culture supernatants were collected and virus production, as determined by p24 ELISA, was assayed. Percent inhibition was calculated as p24 concentration in compound-treated samples as compared to infected, compound-free controls. Inhibition of viral replication is determined by measuring reduction in HIV p24 present in the culture supernatant, using a Beckman-Coulter p24HIV-1 Ag EIA kit and following the supplied protocol. Absorbance is read on a MRX microplate reader (Dynex Technologies). The EC50 was calculated as the concentration of compound that effected a decrease in the p24 production by infected, compound-treated cells to 50% of that produced by infected, compound-free cells.

[3] = tested on: HIV-1 (HIV-1 RF, HIV-1 NL4-3) in CEM-SS / MT-2 cells; test: Cytopathic effect (CPE) inhibition assay (XTT/MTT dye reduction); assay type: cell-based
Summary of the method: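 Readout is XTT reduction (A450, 4 h) after six days of culturing virus-infected (moi 0.025–0.819) or mock-infected CEM-SS/MT-2 cells, 2×10^4 per well, with half-log compound series. Antiviral EC50 and cytotoxic CC50 are relative to uninfected compound-free cells. Therapeutic index is CC50 divided by EC50.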

[4] = tested on: HIV-1 NL4-3 or HIV-1 NL4-3(I84V/L90M); test: Susceptibility assay, p24 ELISA in infected MT-2 cells; assay type: cell-based; conditions: Human immunodeficiency virus 1, NL43, MT2, read-out: EC50 or IC50 (mM), values without asterisk (EC50)
Protocol: T-cell lines, CEM-SS, and MT-2, and viruses HIV-1 RF and HIV-1 NL4-3 (pNL4-3) were obtained from the National Institutes of Health (AIDS Research and Reference Reagent Program, Bethesda, Md.).
as §1

[5] = Human immunodeficiency virus 1, NL43, read-out: Ave CPE EC50
[6] = Human immunodeficiency virus 1, NL43, read-out: Ave CPE EC50 (mM)

Row | SMILES | Ki [1] [nM] | IC50 [2] [mM] | EC50 [3, 5] [nM] | EC50 [4] [nM] | EC50 [3, 6] [nM]
1 | Cc1cnccc1CNC(=O)[C@H]1N(C(=O)[C@@H](O)[C@H](Cc2ccccc2)NC(=O)c2cccc(O)c2C)CSC1(C)C [Example A10, 3-[2-Hydroxy-3-(3-hydroxy-2-methyl-benzoylamino)-4-phenyl-butyryl]-5,5-dimethyl-thiazolidine-4-carboxylic acid (3-methyl-pyridin4-ylmethyl)-amide] | < 0.1 | 0.000118 | 104 | – | –
2 | Cc1c(O)cccc1C(=O)N[C@@H](Cc1ccccc1)[C@H](O)C(=O)N1CC(F)(F)C(C)(C)[C@H]1C(=O)NCC(F)(F)F [Example C23, (S)-4,4-Difluoro-1-[(2S,3S)-2-hydroxy-3-(3-hydroxy-2-methyl-benzoylamino)-4-phenyl-butyryl]-3,3-dimethyl-pyrrolidine-2-carboxylic acid (2,2,2-trifluoro-ethyl)-amide] | < 0.1 | – | 37 | 109 | –
3 | Cc1c(O)cccc1C(=O)N[C@@H](Cc1ccccc1)[C@H](O)C(=O)N1CC(F)(F)C(C)(C)[C@H]1C(=O)N[C@H]1CCOc2ccccc21 [Example C24, (S)-4,4-Difluoro-1-[(2S,3S)-2-hydroxy-3-(3-hydroxy-2-methyl-benzoylamino)-4-phenyl-butyryl]-3,3-dimethyl-pyrrolidine-2-carboxylic acid (S)-1-benzopyran-4-y] | < 0.1 | – | 19 | 74 | –
4 | COc1ccc(CNC(=O)[C@H]2N(C(=O)[C@@H](O)[C@H](Cc3ccccc3)NC(=O)c3cccc(O)c3C)CC(F)(F)C2(C)C)cc1 [Example C25, (S)-4,4-Difluoro-1-[(2S,3S)-2-hydroxy-3-(3-hydroxy-2-methyl-benzoylamino)-4-phenyl-butyryl]-3,3-dimethyl-pyrrolidine-2-carboxylic acid 4-methoxy-benzylamide] | < 0.1 | – | 31 | 68 | –
5 | Cc1c(O)cccc1C(=O)N[C@@H](Cc1ccccc1)[C@H](O)C(=O)N1CC(F)(F)C(C)(C)[C@H]1C(=O)NCc1ccc2c(c1)OCO2 [Example C26, (S)-4,4-Difluoro-1-[(2S,3S)-2-hydroxy-3-(3-hydroxy-2-methyl-benzoylamino)-4-phenyl-butyryl]-3,3-dimethyl-pyrrolidine-2-carboxylic acid (1,3-benzodioxol-5-ylmethyl)-amide] | < 0.1 | – | 76 | 131 | –
6 | Cc1c(O)cccc1C(=O)N[C@@H](Cc1ccccc1)[C@H](O)C(=O)N1COC(C)(C)[C@H]1C(=O)N[C@H]1CCc2ccccc21 [Example C27, (S)-3-((2S,3S)-2-Hydroxy-3-{[1-(3-hydroxy-2-methyl-phenyl)-methanoyl]-amino}-4-phenyl-butanoyl)-5,5-dimethyl-oxazolidine-4-carboxylic acid (S)-indan-1-ylamide] | 0.13 | – | 115 | 189 | –
7 | Cc1c(O)cccc1C(=O)N[C@@H](Cc1ccccc1)[C@H](O)C(=O)N1COC(C)(C)[C@H]1C(=O)N[C@@H]1C=CCCC1 [Example C29, (S)-3-((2S,3S)-2-Hydroxy-3-{[1-(3-hydroxy-2-methyl-phenyl)-methanoyl]-amino}-4-phenyl-butanoyl)-5,5-dimethyl-oxazolidine-4-carboxylic acid (S)-cyclohex-2-enylamide] | 0.18 | – | 142 | 1360 | –
8 | Cc1ccccc1CNC(=O)[C@H]1N(C(=O)[C@@H](O)[C@H](Cc2ccccc2)NC(=O)c2cccc(O)c2C)CSC12CCCC2 [Example C30, 3-(2-Hydroxy-3-{[1-(3-hydroxy-2-methyl-phenyl)-methanoyl]-amino}-4-phenyl-butanoyl)-1-thia-3-aza-spiro [4.4]nonane-4-carboxylic acid 2-methyl-benzamide] | < 0.1 | – | 18 | 273 | –
9 | Cc1ccccc1CNC(=O)[C@H]1N(C(=O)[C@@H](O)[C@H](Cc2ccccc2)NC(=O)c2cccc(O)c2C)CSC12CCCCC2 [Example C31, 3-(2-Hydroxy-3-{[1-(2-methyl-3-hydroxy-phenyl)-methanoyl]-amino}-4-phenyl-butanoyl)-1-thia-3-aza-spiro[4.5]decane-4-carboxylic acid 2-methyl-benzylamide] | 0.17 | – | 31 | 1070 | –
10 | Cc1ccccc1CNC(=O)[C@H]1N(C(=O)[C@@H](O)[C@H](Cc2ccccc2)NC(=O)c2cccc(O)c2C)CSC12CCC2 [Example C32, 7-(2-Hydroxy-3-{[1-(3-hydroxy-2-methyl-phenyl)-methanoyl]-amino}-4-phenyl-butanoyl)-5-thia-7-aza-spiro[3.4]octane-8-carboxylic acid-2-methyl benzylamide] | < 0.1 | – | 9 | 190 | –
11 | CCCNC(=O)[C@H]1N(C(=O)[C@@H](O)[C@H](Cc2ccccc2)NC(=O)c2cccc(O)c2C)CSC12CCCC2 [Example C33, (R)-3-((2S,3S)-2-Hydroxy-3-{[1-(3-hydroxy-2-methyl-phenyl)-methanoyl]-amino}-4-phenyl-butanoyl)-1-thia-3-aza-spiro[4.4]nonane-4-carboxylic acid propylamide] | 0.13 | – | 45 | 1270 | –
12 | C/C=C(\C)CNC(=O)[C@H]1N(C(=O)[C@@H](O)[C@H](Cc2ccccc2)NC(=O)c2cccc(O)c2C)CSC12CCCC2 [Example C34, (R)-3-((2S,3S)-2-Hydroxy-3-{[1-(3-hydroxy-2-methyl-phenyl)-methanoyl]-amino}-4-phenyl-butanoyl)-1-thia-3-aza-spiro[4.4]nonane-4-carboxylic acid ((E)-2-methyl-but-2-enyl)-amide] | < 0.1 | – | – | 627 | 22
13 | Cc1ccc(F)cc1CNC(=O)[C@H]1N(C(=O)[C@@H](O)[C@H](Cc2ccccc2)NC(=O)c2cccc(O)c2C)CSC12CCCC2 [Example C36, (R)-3-((2S,3S)-2-Hydroxy-3-{[1-(3-hydroxy-2-methyl-phenyl)-methanoyl]-amino}-4-phenyl-butanoyl)-1-thia-3-aza-spiro[4.4]nonane-4-carboxylic acid 5-fluoro-2-methyl-benzylamide] | < 0.1 | – | 50 | 666 | –
14 | Cc1c(O)cccc1C(=O)N[C@@H](Cc1ccccc1)[C@H](O)C(=O)N1CSC2(CCCC2)[C@H]1C(=O)N[C@H]1CCCc2ccccc21 [Example C37, (R)-3-((2S,3S)-2-Hydroxy-3-{[1-(3-hydroxy-2-methyl-phenyl)-methanoyl]-amino}-4-phenyl-butanoyl)-1-thia-3-aza-spiro[4.4]nonane-4-carboxylic acid (1,2,3,4-tetrahydro-naphthalen-1-yl)-amide] | 0.61 | – | 27 | 1290 | –
15 | CCCNC(=O)[C@H]1N(C(=O)[C@@H](O)[C@H](Cc2ccccc2)NC(=O)c2cccc(O)c2C)CSC12CCC2 [Example C38, (R)-7-((2S,3S)-2-Hydroxy-3-{[1-(3-hydroxy-2-methyl-phenyl)-methanoyl]-amino}-4-phenyl-butanoyl)-5-thia-7-aza-spiro[3.4]octane-8-carboxylic acid propylamide] | < 0.1 | – | 42 | 1310 | –
16 | Cc1c(O)cccc1C(=O)N[C@@H](Cc1ccccc1)[C@H](O)C(=O)N1CSC2(CCC2)[C@H]1C(=O)N[C@@H]1C=CCCC1 [Example C39, (R)-7-((2S,3S)-2-Hydroxy-3-{[1-(3-hydroxy-2-methyl-phenyl)-methanoyl]-amino}-4-phenyl-butanoyl)-5-thia-7-aza-spiro[3.4]octane-8-carboxylic acid (S)-cyclohex-2-enylamide] | < 0.1 | – | 13 | 404 | –
17 | C=CCCC(=O)[C@H]1N(C(=O)[C@@H](O)[C@H](Cc2ccccc2)NC(=O)c2cccc(O)c2C)CSC1(C)C [Example D1, N-[(1S,2S)-1-Benzyl-3-((R)-5,5-dimethyl-4-pent-4-enoyl-thiazolidin-3-yl)-2-hydroxy-3-oxo-propyl]-3-hydroxy-2-methyl-benzamide] | < 0.1 | – | – | 601 | 52
